Measured values from patent US4889917A, “Peptide” (Agency of Industrial Science Technology, Ministry of …, priority 1987, dated 1989).

Test system: human antibody to the nicotinic acetylcholine receptor
Experiment: Adsorption of human anti-nicotinic acetylcholine receptor antibody from myasthenia gravis patient serum; residual antibody in supernatant by Con A method (toxin binding inhibition)
Method: In 0.5 ml of serum from a patient of myasthenia gravis, 50 mg of the adsorbent obtained in Referential Example 3(a) (cellulose particles having the peptide immobilized thereon) and not yet subjected to any heat treatment or the adsorbent obtained in Referential Example 3(b) and subjected to a heat treatment was suspended at a temperature of 37° C. for three hours. The resultant suspension was centrifuged to separate a supernatant. The supernatant was tested for the concentration of the human antibody to the nicotinic acetylcholine receptor by the Con A method [Protein, Nucleic Acid and Enzyme, vol. […] To be specific, the specimen was brought into contact sequentially with the nicotinic acetylcholine receptor and a radioisotope-labelled α-bungartoxin. The treated specimen was passed through a column packed with Sepharose having immobilized thereon concanavalin (Con A). By measuring the radioactivity of the column, the amount of the human antibody which was contained in the specimen and which inhibited the union of the α-bungarotoxin with the nicotinic acetylcholine receptor was determined in terms of toxin binding inhibition activity (ratio of decrease of the radioactivity of the column).

NCC(=O)O [Glycine, glycine]
Toxine binding inhibition activity (as E1, adsorbent heat treated at 121° C. for 20 minutes): 45% | Toxine binding inhibition activity (supernatant of 0.5 ml myasthenia gravis serum after 50 mg adsorbent (substance immobilized on cellulose particles), 37° C., three hours, no heat treatment, lower = more antibody adsorbed): 44%
